Read-outs that look alike come from different tables or passages of the source.
Experiments:
[1] = Sodium sensing: quantum yield vs sodium perchlorate concentration; details: in acetonitrile
Method: The benzo 15-crown-5 anthracene diimide derivative was synthesized because crown ethers are known for their ability to bind with metals. […] The extinction coefficient, ∈, was determined to be 16,000 M^−1 cm^−1 and the quantum yield, Φ, 0.02 (both were measured in acetonitrile). The emission spectrum for this compound was more complicated than the others. An excimer effect was evident in higher concentration samples and was more prominent in non-polar solvents. The excimer complicated the lifetime in toluene with a short component for the excited dimer state.

[2] = not given; remark: listed apart in the source
[3] = cited from earlier work
[4] = Fluorescence quenching by 2,4-dinitrotoluene (Stern-Volmer); details: concentrated and dilute solutions in toluene
[5] = Absorption spectrum of perylene diimide (Example 5); assay type: physicochemical; details: CH2Cl2
[6] = Emission spectrum and quantum yield of perylene diimide (Example 5); assay type: physicochemical
[7] = Fluorescence lifetime by TCSPC (Example 5); assay type: physicochemical; details: room temperature, CH2Cl2
Method: (§1) Luminescence lifetimes were measured with an IBH time-correlated single photon counting (TCSPC) system equipped with an IBH Model TBX-04 Photon Detection Module. The excitation source for the TCSPC measurements was a pulsed LED (IBH NanoLED, 455 nm, 1.3 ns pulse duration or 403 nm, <200 ps pulse duration) with a repetition rate of 1 MHz. All data was analyzed by iterative reconvolution of the decay profile (10,000 counts at the peak channel) with the instrument response function using software provided by the instrument manufacturer.

Solubility = details: polar organic solvents
[8] = depending on the solvent
Method: as §1

N,N′-Bis(benzo 15-crown-5)-1,5-bis(phenyl)anthracene-2,3,6,7-tetracarboxyl diimide
sodium sensing [1]: effective sensor of sodium perchlorate
extinction coefficient, ∈ (in acetonitrile): 16,000 M^−1 cm^−1
quantum yield, Φ ([2]; in acetonitrile): 0.02

F[P-](F)(F)(F)(F)F.F[P-](F)(F)(F)(F)F.[Ru+2].c1ccc(-c2ccccn2)nc1.c1ccc(-c2ccccn2)nc1.c1ccc(-c2ccccn2)nc1 [[Ru(bpy)3](PF6)2]
Φr of standard ([3]; in CH3CN): 0.062

N,N′-Bis(p-triphenyl amine)-1,5-bis(phenyl)anthracene-2,3,6,7-tetracarboxyl diimide
2,4-dinitrotoluene sensing (quenching) [4]: effective 2,4-dinitrotoluene (DNT) sensor
extinction coefficient, ∈ (in toluene): 22,000 M^−1 cm^−1
quantum yield, Φ ([2]; in toluene): 0.09

CCCCCCCCn1c(=O)c2c(-c3ccccc3)c3cccc4c3c(c3cccc5c(-c6ccccc6)c6c(=O)n(CCCCCCCC)c(=O)c6c4c53)c2c1=O [Compound 59, N,N′-Bis(octyl)-3,9-bis(phenyl)-perylene-1,2,7,8-tetracarboxyl diimide]
extinction coefficient ([5]; at absorption λmax): 29,000 M^−1 cm^−1
absorption λmax ([5]; room temperature): ~491 nm
quantum yield ([6]; measured against fluorescein): 0.67
Stokes' shift ([6]; room temperature, CH2Cl2): 26 nm
fluorescence λmax ([6]; room temperature, CH2Cl2, 425 nm excit.): 517 nm
single exponential lifetime [7]: 5.01 ns
solubility (Solubility): soluble in polar organic solvents

c1ccc2cc3ccccc3cc2c1 [anthracene]
Φr of standard ([3]; in EtOH): 0.27

N,N′-Bis(p-(tert-butyl)phenyl)-1,5-bis(phenyl)anthracene-2,3,6,7-tetracarboxyl diimide
extinction coefficient, ∈ (in toluene): 8,500 M^−1 cm^−1
quantum yield, Φ ([2]; in toluene): 0.29
lifetime (single exponential) [8]: around 5.5 ns
